According to ChEMBL document CHEMBL3580586, “Novel azoles as potent and selective cannabinoid CB2 receptor agonists” (Bioorg Med Chem Lett, 2014):

Organism: Homo sapiens
Experiment: Selectivity ratio of EC50 for human CB1 receptor to EC50 for human CB2 receptor
Conditions: not given; call rule not given here

| Compound | Selectivity ratio |
| --- | --- |
| CC(C)(C)c1cc(-c2csc(C3(N4CCCCC4)CCOCC3)n2)cc(C(C)(C)C)c1O | 56 |
| CN(C)C1(c2nc(-c3cc(C(C)(C)C)c(O)c(C(C)(C)C)c3)co2)CCOCC1 | 32 |
| CN1CCCCC1Cn1cc(C(=O)c2cc([N+](=O)[O-])ccc2I)c2ccccc21 (stereo not given) | 63 |
| CN(C)C1(c2nc(-c3cc(C(C)(C)C)c(O)c(C(C)(C)C)c3)cs2)CCOCC1 | 64 |
| CN(C)C1(c2nc(-c3cc(C(C)(C)C)c(O)c(C(C)(C)C)c3)cs2)CCSCC1 | 40 |
| CCN(CC)C1(c2nc(-c3cc(C(C)(C)C)c(O)c(C(C)(C)C)c3)cs2)CCOCC1 | 56 |

Molecular target: T1, Cannabinoid receptor 1 (Homo sapiens, UniProt P21554)
T1 sequence (P21554 whole entry): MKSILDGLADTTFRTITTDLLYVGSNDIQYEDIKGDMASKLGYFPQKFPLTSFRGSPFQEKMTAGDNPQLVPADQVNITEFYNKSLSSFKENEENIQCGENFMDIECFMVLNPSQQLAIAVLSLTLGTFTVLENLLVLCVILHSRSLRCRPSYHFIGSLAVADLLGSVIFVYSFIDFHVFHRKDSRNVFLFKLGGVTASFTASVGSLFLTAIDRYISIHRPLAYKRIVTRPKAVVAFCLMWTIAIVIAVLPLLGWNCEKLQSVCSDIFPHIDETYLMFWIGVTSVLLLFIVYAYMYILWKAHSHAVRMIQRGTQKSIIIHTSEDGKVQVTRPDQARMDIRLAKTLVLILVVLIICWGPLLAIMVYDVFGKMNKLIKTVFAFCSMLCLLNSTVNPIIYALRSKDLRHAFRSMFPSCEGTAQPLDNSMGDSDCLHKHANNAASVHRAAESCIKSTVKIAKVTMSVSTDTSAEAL
Experiment: Displacement of [3H]CP55940 from human CB1 receptor expressed in CHO-K1 cell membrane by competitive displacement assay
Format: cell membranes
Conditions: cho-k1

| Compound | Ki |
| --- | --- |
| CN(C)Cc1nc(-c2cc(C(C)(C)C)c(O)c(C(C)(C)C)c2)cs1 | Not Active |
| CC(C)(C)c1cc(-c2csc(C3(N4CCOCC4)CCOCC3)n2)cc(C(C)(C)C)c1O | Not Active |

Same assay, conditions: read-out: Ki

| Compound | Ki [nM] |
| --- | --- |
| CC(C)(C)c1cc(-c2csc(C3(N)CCOCC3)n2)cc(C(C)(C)C)c1O | 6960 |
| CC(C)(C)c1cc(-c2csc(C3(N4CCCCC4)CCOCC3)n2)cc(C(C)(C)C)c1O | 2170 |
| CN(C)C1(c2nc(-c3cc(C(C)(C)C)c(O)c(C(C)(C)C)c3)co2)CCOCC1 | 817 |
| CN1CCCCC1Cn1cc(C(=O)c2cc([N+](=O)[O-])ccc2I)c2ccccc21 (stereo not given) | 2080 |
| CNC1(c2nc(-c3cc(C(C)(C)C)c(O)c(C(C)(C)C)c3)cs2)CCOCC1 | 2270 |
| CN(C)C1(c2nc(-c3cc(C(C)(C)C)c(O)c(C(C)(C)C)c3)cs2)CCOCC1 | 857 |
| CN(C)C1(c2nc(-c3cc(C(C)(C)C)cc(C(C)(C)C)c3)cs2)CCOCC1 | 4710 |
| CN(C)C1(c2nc(-c3cc(C(C)(C)C)c(O)c(C(C)(C)C)c3)cs2)CCSCC1 | 2340 |
| CCN(CC)C1(c2nc(-c3cc(C(C)(C)C)c(O)c(C(C)(C)C)c3)cs2)CCOCC1 | 3300 |

Molecular target: T1, Cannabinoid receptor 1
Experiment: Agonist activity at human CB1 receptor expressed in CHO-K1 cells assessed as inhibition of forskolin-stimulated cAMP production
Format: functional, cell-based
Conditions: not given

| Compound | EC50 [nM] |
| --- | --- |
| CC(C)(C)c1cc(-c2csc(C3(N4CCCCC4)CCOCC3)n2)cc(C(C)(C)C)c1O | 2260 |
| CN(C)C1(c2nc(-c3cc(C(C)(C)C)c(O)c(C(C)(C)C)c3)co2)CCOCC1 | 1400 |
| CN1CCCCC1Cn1cc(C(=O)c2cc([N+](=O)[O-])ccc2I)c2ccccc21 (stereo not given) | 1040 |
| CN(C)C1(c2nc(-c3cc(C(C)(C)C)c(O)c(C(C)(C)C)c3)cs2)CCOCC1 | 2670 |
| CN(C)C1(c2nc(-c3cc(C(C)(C)C)c(O)c(C(C)(C)C)c3)cs2)CCSCC1 | 2380 |
| CCN(CC)C1(c2nc(-c3cc(C(C)(C)C)c(O)c(C(C)(C)C)c3)cs2)CCOCC1 | 4040 |

Molecular target: T2, Cannabinoid receptor 2 (Homo sapiens, UniProt P34972)
T2 sequence (P34972 whole entry): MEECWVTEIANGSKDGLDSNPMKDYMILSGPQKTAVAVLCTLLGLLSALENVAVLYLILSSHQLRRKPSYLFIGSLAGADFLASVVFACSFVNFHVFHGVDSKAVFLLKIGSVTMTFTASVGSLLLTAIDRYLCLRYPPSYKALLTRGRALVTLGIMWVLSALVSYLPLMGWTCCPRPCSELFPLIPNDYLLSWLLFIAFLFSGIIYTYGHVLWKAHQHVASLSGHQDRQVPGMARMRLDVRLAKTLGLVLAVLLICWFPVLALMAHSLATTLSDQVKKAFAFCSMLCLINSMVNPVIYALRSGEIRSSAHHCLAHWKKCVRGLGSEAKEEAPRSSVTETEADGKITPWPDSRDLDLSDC
Experiment: Displacement of [3H]CP55940 from human CB2 receptor expressed in CHO-K1 cell membrane by competitive displacement assay
Format: cell membranes
Conditions: not given

| Compound | Ki [nM] |
| --- | --- |
| CC(C)(C)c1cc(-c2csc(C3(N)CCOCC3)n2)cc(C(C)(C)C)c1O | 2700 |
| CC(C)(C)c1cc(-c2csc(C3(N4CCCCC4)CCOCC3)n2)cc(C(C)(C)C)c1O | 49.7 |
| CN(C)C1(c2nc(-c3cc(C(C)(C)C)c(O)c(C(C)(C)C)c3)co2)CCOCC1 | 51.6 |
| CN1CCCCC1Cn1cc(C(=O)c2cc([N+](=O)[O-])ccc2I)c2ccccc21 (stereo not given) | 21.8 |
| CNC1(c2nc(-c3cc(C(C)(C)C)c(O)c(C(C)(C)C)c3)cs2)CCOCC1 | 144 |
| CN(C)C1(c2nc(-c3cc(C(C)(C)C)c(O)c(C(C)(C)C)c3)cs2)CCOCC1 | 29.4 |
| CN(C)Cc1nc(-c2cc(C(C)(C)C)c(O)c(C(C)(C)C)c2)cs1 | 6240 |
| CN(C)C1(c2nc(-c3cc(C(C)(C)C)cc(C(C)(C)C)c3)cs2)CCOCC1 | 127 |
| CC(C)(C)c1cc(-c2csc(C3(N4CCOCC4)CCOCC3)n2)cc(C(C)(C)C)c1O | 177 |
| CN(C)C1(c2nc(-c3cc(C(C)(C)C)c(O)c(C(C)(C)C)c3)cs2)CCSCC1 | 81.7 |
| CCN(CC)C1(c2nc(-c3cc(C(C)(C)C)c(O)c(C(C)(C)C)c3)cs2)CCOCC1 | 77.4 |

Tested on: not listed separately
Experiment: Antioxidant activity assessed as inhibition of lipid peroxidation
Format: physicochemical
Conditions: not given

| Compound | IC50 [nM] |
| --- | --- |
| CN(C)C1(c2nc(-c3cc(C(C)(C)C)c(O)c(C(C)(C)C)c3)cs2)CCOCC1 | 500 |

Organism: Homo sapiens
Experiment: Selectivity ratio of Ki for human CB1 receptor to Ki for human CB2 receptor
Conditions: not given

| Compound | Selectivity ratio |
| --- | --- |
| CC(C)(C)c1cc(-c2csc(C3(N)CCOCC3)n2)cc(C(C)(C)C)c1O | 2.6 |
| CC(C)(C)c1cc(-c2csc(C3(N4CCCCC4)CCOCC3)n2)cc(C(C)(C)C)c1O | 43 |
| CN(C)C1(c2nc(-c3cc(C(C)(C)C)c(O)c(C(C)(C)C)c3)co2)CCOCC1 | 16 |
| CN1CCCCC1Cn1cc(C(=O)c2cc([N+](=O)[O-])ccc2I)c2ccccc21 (stereo not given) | 95 |
| CNC1(c2nc(-c3cc(C(C)(C)C)c(O)c(C(C)(C)C)c3)cs2)CCOCC1 | 16 |
| CN(C)C1(c2nc(-c3cc(C(C)(C)C)c(O)c(C(C)(C)C)c3)cs2)CCOCC1 | 30 |
| CN(C)C1(c2nc(-c3cc(C(C)(C)C)cc(C(C)(C)C)c3)cs2)CCOCC1 | 37 |
| CN(C)C1(c2nc(-c3cc(C(C)(C)C)c(O)c(C(C)(C)C)c3)cs2)CCSCC1 | 29 |
| CCN(CC)C1(c2nc(-c3cc(C(C)(C)C)c(O)c(C(C)(C)C)c3)cs2)CCOCC1 | 43 |

Molecular target: T2, Cannabinoid receptor 2
Experiment: Agonist activity at human CB2 receptor expressed in CHO-K1 cells assessed as inhibition of forskolin-stimulated cAMP production
Format: functional, cell-based
Conditions: not given

| Compound | EC50 [nM] |
| --- | --- |
| CC(C)(C)c1cc(-c2csc(C3(N4CCCCC4)CCOCC3)n2)cc(C(C)(C)C)c1O | 40 |
| CN(C)C1(c2nc(-c3cc(C(C)(C)C)c(O)c(C(C)(C)C)c3)co2)CCOCC1 | 43.6 |
| CN1CCCCC1Cn1cc(C(=O)c2cc([N+](=O)[O-])ccc2I)c2ccccc21 (stereo not given) | 16.4 |
| CN(C)C1(c2nc(-c3cc(C(C)(C)C)c(O)c(C(C)(C)C)c3)cs2)CCOCC1 | 42 |
| CN(C)C1(c2nc(-c3cc(C(C)(C)C)c(O)c(C(C)(C)C)c3)cs2)CCSCC1 | 59.1 |
| CCN(CC)C1(c2nc(-c3cc(C(C)(C)C)c(O)c(C(C)(C)C)c3)cs2)CCOCC1 | 72 |
